In PubChem BioAssay AID1918932 (Molecular Pharmacology Branch, DTP, NCI, 2023):
Values joined by “and” are separate entries in the source; they are usually repeats but may differ in a detail not shown here. Identical values can stand only once.

System: 171881-019-R-J1-PDC complex spheroid viability
Experiment: Anticancer human tumor 171881-019-R-J1-PDC patient-derived invasive breast carcinoma cell line growth inhibition
Conditions: for viability, T/C: stronger effect = lower value
Excerpt: Multicellular complex tumor spheroid response to LSD1 Inhibitor Iadademstat in combination with a variety of drugs and investigational agents in selected tumor cell lines
The current study was undertaken to assess response to LSD1 inhibitors in combination with standard-of-care drugs and investigational agents in solid tumor complex spheroid models as well as in the K-562 leukemia. Complex spheroids include a stromal component modeled by human endothelial cells (HUVEC) and fibroblasts modeled by human mesenchymal stem cells (MSCs). The concentration ranges selected for each drug and investigational agent were based upon clinically achievable concentrations if the clinical Cmax of the agent was known.
Compounds. The drugs and investigational agents used in this study are listed on Table 1. All of the agents used, including staurosporine (NSC755774) and gemcitabine (NSC613327), were obtained from the Developmental Therapeutics Program, NCI. FDA-approved anticancer drugs are available from the NCI at http://dtp.nci.nih.gov/branches/dscb/oncology_drugset_explanation.html. Drugs and investigational agents were >95% pure by proton nuclear magnetic resonance (NMR) and liquid chromatography/mass spectrometry (LC/MS). Stock solutions were prepared at 400x in DMSO, stored at -70 degrees C, and diluted in fresh medium prior to their use. The final concentration of DMSO in cell culture wells never exceeded 0.25% (v/v). The FDA-approved anticancer drug set is available from the Developmental Therapeutics Program at https://dtp.cancer.gov/organization/dscb/obtaining/available_plates.htm. All drugs and investigational agents were tested over a range starting from a high concentration at or near the clinical Cmax and decreasing in half-log increments. If the clinical Cmax for an agent had not been determined, the highest concentration tested was 10 microM.
Cell Lines. The patient-derived cancer cell (PDC) lines: 292921-168-R-J2-PDC, K24384-001-R-PDC, and 521955-158-R2-J5-PDC pancreatic carcinomas, 556581-035-R-J1 ovarian carcinoma, 324938-238-R-J1-PDC, 855422-203-R-J1-PDC and 883617-216-R-J1-PDC urothelial bladder carcinomas, 743489-274-T-PDC renal cell carcinoma, 138582-R-J1 Merkel cell tumor, K60290-347-R-J1 and K57222-313-R-J1-PDC glioblastomas, 653999-131-R-J2-PDC, LG0703-F948-PDC, and 349418-098-R-PDC non-small cell lung carcinomas, 885512-296-R-J2-PDC, 171881-019-R-J1-PDC breast carcinomas and 186277-243-T-J2-PDC and 233499-124-R-J2-PDC colon carcinomas were obtained from the NCI Patient-Derived Models Repository (PDMR, https://pdmr.cancer.gov). The established cell lines NCI/ADR-RES (RRID:CVCL_14520 and OVCAR-5 (RRID:CVCL_1628) ovarian carcinomas, 786-O (RRID:CVCL_1051) and A498 (RRID:CVCL_A498) renal cell carcinoma, NCI-H211 (ATCC, cat. CRL-5824; RRID:CVCL_1529), NCI-H196 (ATCC, cat. CRL-5823, RRID:CVCL_1509), SW 1271 (ATCC, cat. CRL-2177, RRID:CVCL_1716) and NCI-H1876 (ATCC, cat. CRL-5902, RRID:CVCL_1503) small cell lung carcinomas, MDA-MB-231 (RRID:CVCL_0062) and MDA-MB-468 (RRID:CVCL_0419)breast carcinomas (10-12). Pooled donor human umbilical vein endothelial cells (HUVEC, Lonza, cat. CC-2519) and human mesenchymal stem cells (hMSC, Lonza, cat. PT-2501) were purchased from Lonza (Walkersville, MD).
Cell Culture. All cells were maintained in an incubator at 37 degrees C and 5% CO2 with 95% humidity. The PDC lines were cultured according to standard operating procedures established by the NCI PDMR (https://pdmr.cancer.gov). Briefly all PDCs were thawed and cultured in Matrigel-coated flasks prepared with a working solution of 1X Ham's F-12 nutrient mix, without supplementation (Invitrogen, Waltham, MA, cat. 11765054), 100 U/mL penicillin-streptomycin (Invitrogen, cat. 15140122), and 2.5% Matrigel (Corning Inc., Corning, NY, cat. 354248) for the first three passages. […]
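Further: spheroids exposed to agents for 7 days after 3 days growth.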

## O=C(C=Cc1cccc(S(=O)(=O)Nc2ccccc2)c1)NO + NC1CC1c1ccc(-c2cccc(O)c2)cc1
Curve of first compound, second compound 0.1 µM
  IC50: 382 nM
Curve of first compound, second compound 0.316 µM
  IC50: 404 nM
Curve of first compound, second compound 1 µM
  IC50: 419 nM
Curve of first compound, second compound 3.16 µM
  IC50: 389 nM
Curve of first compound, second compound 10 µM
  IC50: 309 nM
Second compound 0.1 µM, first compound 0.00949 µM
  viability, T/C: 99.8%
Second compound 0.1 µM, first compound 0.03 µM
  viability, T/C: 104%
Second compound 0.1 µM, first compound 0.0949 µM
  viability, T/C: 102%
Second compound 0.1 µM, first compound 0.3 µM
  viability, T/C: 63.1%
Second compound 0.1 µM, first compound 0.949 µM
  viability, T/C: 1.03%
Second compound 0.1 µM, first compound 3 µM
  viability, T/C: 0.11%
Second compound 0.316 µM, first compound 0.00949 µM
  viability, T/C: 100%
Second compound 0.316 µM, first compound 0.03 µM
  viability, T/C: 98.5%
Second compound 0.316 µM, first compound 0.0949 µM
  viability, T/C: 100%
Second compound 0.316 µM, first compound 0.3 µM
  viability, T/C: 67%
Second compound 0.316 µM, first compound 0.949 µM
  viability, T/C: 1.15%
Second compound 0.316 µM, first compound 3 µM
  viability, T/C: 0.13%
Second compound 1 µM, first compound 0.00949 µM
  viability, T/C: 104%
Second compound 1 µM, first compound 0.03 µM
  viability, T/C: 103%
Second compound 1 µM, first compound 0.0949 µM
  viability, T/C: 103%
Second compound 1 µM, first compound 0.3 µM
  viability, T/C: 69.9%
Second compound 1 µM, first compound 0.949 µM
  viability, T/C: 1.32%
Second compound 1 µM, first compound 3 µM
  viability, T/C: 0.23%
Second compound 3.16 µM, first compound 0.00949 µM
  viability, T/C: 92%
Second compound 3.16 µM, first compound 0.03 µM
  viability, T/C: 89.5%
Second compound 3.16 µM, first compound 0.0949 µM
  viability, T/C: 97.2%
Second compound 3.16 µM, first compound 0.3 µM
  viability, T/C: 64.3%
Second compound 3.16 µM, first compound 0.949 µM
  viability, T/C: 1.09%
Second compound 3.16 µM, first compound 3 µM
  viability, T/C: 0.11%
Second compound 10 µM, first compound 0.00949 µM
  viability, T/C: 77%
Second compound 10 µM, first compound 0.03 µM
  viability, T/C: 73.5%
Second compound 10 µM, first compound 0.0949 µM
  viability, T/C: 85.6%
Second compound 10 µM, first compound 0.3 µM
  viability, T/C: 51.4%
Second compound 10 µM, first compound 0.949 µM
  viability, T/C: 0.76%
Second compound 10 µM, first compound 3 µM
  viability, T/C: 0.14%

## Nc1ccn(C2OC(CO)C(O)C2(F)F)c(=O)n1 (configuration not stated)
Compound 0.000949 µM
  viability, T/C: 73.3% and 67.7%
Compound 0.003 µM
  viability, T/C: 53.2% and 58.2%
Compound 0.00949 µM
  viability, T/C: 57.9% and 55.9%
Compound 0.03 µM
  viability, T/C: 62.1% and 61.5%
Compound 0.0949 µM
  viability, T/C: 64.6% and 63.9%
Compound 0.3 µM
  viability, T/C: 58.1% and 64.4%
Curve of compound
  IC50: > 300 nM
